From patent US11179450B2, “Long chain antigen containing interepitope sequence that promotes antigen presentation to T cells” (MIE UNIVERSITY, priority 2013, dated 2021)

B1: NMW(Y6) mRNA: mRNA (RNA vaccine) from template cDNA Sequence No. 31, encoding long chain peptide antigen NMW with Y6 interepitope sequence (nucleic acid)
DNA: GGATCCATGAGCCTCCTGATGTGGATTACCCAATGCTATTACTACTATTACTACAACTATAAGAGATGTTTCCCCGTGATCTATTACTACTACTACTATTGCTATACATGGAATCAGATGAACCTGTGAGAATTC
modifications: mRNA transcribed from template cDNA; DNA sequence of a long chain peptide antigen, containing three types of human CD8+ T cell recognition epitope sequences (NY p157, MA4 p143, and WT1 p235)

Assays:
[1] = test system: NY p91 specific CD4+ T cells; experiment: Specific CD4+ T cell induction in mice, intracellular cytokine staining (NY p91 epitope); type: in vivo, BALB/c mice; details: FIG. 5; ESO1 LP vaccines complexed with CHP, CpG oligo DNA
Excerpt: (§1) A long chain peptide antigen ESO1 LP (native type) (Sequence No. 16) and a long chain peptide antigen ESO1 LP (Y6) (Sequence No. 17), both containing a mouse CD8+ T cell epitope sequence (NY p81 or NY p82) and a mouse CD4+ T cell epitope sequence (NY p91) that are derived from human NY-ESO-1 antigen, were synthesized. As the interepitope sequence between epitopes, the native amino acid sequence of NY-ESO-1 was retained in the ESO1 LP (native type) and the sequence of six consecutive tyrosines (Y6) was used in the ESO1 LP (Y6). Vaccines containing the respective long chain peptide antigens were administered to mice in the same manner as in FIG. 1 and the frequencies of CD8+ T cells and CD4+ T cells specific to the respective epitope sequences were measured by the intracellular cytokine staining method.
Each CHP/long chain peptide complex as the vaccine and the CpG oligo DNA as the adjuvant were administered at the same time to a mouse. Administration was performed by subcutaneous injection on the back of the mouse. As the dose, the CHP/long chain peptide complex was administered at 0.05 to 0.1 mg equivalent of long chain peptide per administration. […]
The mouse spleen cells were added at 5×10^6 cells/0.5 mL per well to a 24-well culture plate (Nunc). […] The cells were analyzed by a flow cytometer (FACS Canto II, BD Biosciences) using the included analysis software (FACSDiva).

[2] = test system: NY p81 specific CD8+ T cells; experiment: Specific CD8+ T cell induction in mice, intracellular cytokine staining (NY p81 epitope); type: in vivo, BALB/c mice; details: FIG. 5; ESO1 LP vaccines complexed with CHP, CpG oligo DNA
Excerpt: as §1
Long chain peptide antigens MEN, all containing three types of mouse CD8+ T cell epitope sequences (MA p265 (Sequence No. 27), NY p81 (Sequence No. 29), and mERK2 9m (Sequence No. 28)), were synthesized. The interepitope sequences between the respective epitopes were one to six consecutive tyrosines (Sequence Nos. 1 and 9-12). Vaccines containing the respective long chain peptide antigens were administered to mice in the same manner as in FIG. 1 and the frequencies of CD8+ T cells specific to the respective epitope sequences were measured by the intracellular cytokine staining method.
Long chain peptide antigens MEN, all containing three types of mouse CD8+ T cell epitope sequences (MA p265 (Sequence No. 27), NY p81 (Sequence No. 29), and mERK2 9m (Sequence No. 28)), were synthesized. The interepitope sequences between the respective epitopes were five to ten consecutive tyrosines (Sequence Nos. 1 and 13-15). Vaccines containing the respective long chain peptide antigens were administered to mice in the same manner as in FIG. 1 and the frequencies of CD8+ T cells specific to the respective epitope sequences were measured by the intracellular cytokine staining method. […]

CD8+ T cell = details: compared with NY p81; Non-Patent Document 8; cited from earlier work
[3] = test system: NY p157 specific CD8+ T cell clone 1G4 cells; experiment: Antigen presentation by LCL electroporated with mRNA vaccine, IFN-γ ELISPOT (1G4); type: cell-based, human; details: FIG. 11; mRNA introduced into LCL by electroporation
Experimental: (§2) The interepitode sequences between the respective epitopes were the six consecutive amino acids shown in FIG. 11, namely sequence Nos. 31-34. Each mRNA was introduced in vitro as a vaccine into LCL by electroporation. Using these LCL as the antigen-presenting cells, they were co-cultured with CD8+ T cell clone 1G4 cells specific to NY p157 or CD8+ T cell clone RNT007#45 cells specific to MA4 p143 and the activation of the CD8+ T cells due to antigen presentation was measured by the IFN-γ ELISPOT method.
(§3) mRNA was introduced by an electroporation method (300V, 700 μs) using ECM830 into LCL that was rinsed and suspended in the same manner as in (9). The cells were cultured for 24 hours at 37° C. in the presence of 5% CO2 and then used as antigen-presenting cells.
(§4) 75 μL aliquots of anti-IFN-γ antibody for capture, diluted to an appropriate concentration, were dispensed into a 96-well plate (Millipore Corp., Multiscreen HA, MAHAS4510) specially designed for ELISPOT and left to stand overnight at 4° C. After discarding the liquid and rinsing with RPMI medium, 100 μL aliquots of RPMI medium containing 10% fetal bovine serum were dispensed and the plate was left to stand for not less than 1 hour at 37° C. The liquid was discarded, and the LCL prepared in (9) or (10) was adjusted to 5×10^4 cells/100 μL/well and added to each well. […]

[4] = test system: MA4 p143 specific CD8+ T cell clone RNT007 #45 cells; experiment: Antigen presentation by LCL electroporated with mRNA vaccine, IFN-γ ELISPOT (RNT007 #45); type: cell-based, human; details: FIG. 11; mRNA introduced into LCL by electroporation
Experimental: as §2, §3, §4

Row | Molecule | induction of NY p91 specific CD4+ T cells [1] | induction of NY p81 specific CD8+ T cells [2] | immunogenicity (CD8+ T cell) | activation of 1G4 cells [3] | activation of RNT007 #45 cells [4]
1 | GARGPESRLLEFYLAMPFATPMEAELARRSLAQDAPPLPV [ESO1 LP (native type), reference compound] | clearly observed | hardly observed |  |  | 
2 | GPESRLLYYYYYYYLAMPFATPMEAELARRSLA (Long chain peptide antigen, containing a mouse CD8+ T cell epitope sequence (NY p81) and a mouse CD4+ T cell epitope sequence (NY p91)) [ESO1 LP (Y6)] | clearly observed | significant |  |  | 
3 | GPESRLL (Peptide sequence containing mouse CD8+ T cell epitope, NY p82) |  |  | poorer in immunogenicity than NY p81 |  | 
4 | B1 |  |  |  | clearly confirmed | clearly confirmed
